Earlier results in WO2011103442A2, “Synthesis of the potent immunosuppressant agents dalesconol a and b” (Columbia University in the City of New York, priority 2010, dated 2011).
In brackets after ≈: the same amount, converted by molar mass.

Assays:
acetylcholinesterase = acetylcholinesterase (Homo sapiens, UniProt P22303)
[1] = compared with cyclosporin A
[2] = for IC50, immunosuppressive activity: as repeated in the Discussion
[3] = tested on: ConA-induced proliferation of mouse spleen cells; conditions: in vitro

Sequence of acetylcholinesterase (P22303 32-614): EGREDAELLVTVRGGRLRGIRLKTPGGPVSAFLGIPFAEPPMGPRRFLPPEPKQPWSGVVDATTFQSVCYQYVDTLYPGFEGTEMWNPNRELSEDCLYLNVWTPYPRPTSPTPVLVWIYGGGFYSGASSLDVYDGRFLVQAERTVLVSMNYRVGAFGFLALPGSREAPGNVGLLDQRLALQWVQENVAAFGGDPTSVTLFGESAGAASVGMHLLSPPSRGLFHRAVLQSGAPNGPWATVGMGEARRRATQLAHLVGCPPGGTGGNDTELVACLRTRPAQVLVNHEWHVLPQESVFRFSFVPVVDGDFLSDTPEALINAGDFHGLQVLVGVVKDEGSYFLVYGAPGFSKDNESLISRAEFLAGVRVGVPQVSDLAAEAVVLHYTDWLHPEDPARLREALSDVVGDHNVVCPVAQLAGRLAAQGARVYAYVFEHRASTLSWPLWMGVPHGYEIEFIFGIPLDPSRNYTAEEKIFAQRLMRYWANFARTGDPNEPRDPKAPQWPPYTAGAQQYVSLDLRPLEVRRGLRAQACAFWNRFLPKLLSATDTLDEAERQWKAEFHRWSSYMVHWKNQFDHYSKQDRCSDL

| Molecule | acetylcholinesterase inhibition (acetylcholinesterase) | background cytotoxicity relative to cyclosporin A [1] | IC50, immunosuppressive activity [2] [pg/mL] | immunosuppressive potency of racemic mixture versus separated enantiomers ([2]; racemic mixture) | selectivity factor, activity versus cytotoxic effects [3] |
| --- | --- | --- | --- | --- | --- |
| O=C1CC2CC(=O)c3c(O)cccc3C23C(=C2C=CC(=O)c4c(O)ccc3c42)c2cccc(O)c21 (stereo not drawn) [dalesconol A] | potent acetylcholinesterase inhibitor | significantly reduced background cytotoxicity | 0.16 (≈ 0.000346 nM) | more potent than their separated enantiomers | greater than 500 |
| cyclosporin A [reference compound] | – | – | 0.06 | – | – |
